Earlier results in US20260262632A1, “COMPOSITIONS AND METHODS FOR TANK-MIX SPRAY APPLICATION OF 1-MCP” (AGROFRESH INC., priority 2023, published 2026).

## CC1=CC1 [1-MCP, 1-Methylcyclopropene]
  concentration above which gaseous 1-MCP is flammable: > 13,300 ppm
